Laboratory results taken from patent publication US9550811B2, “Peptide scaffold design” (BIONOR IMMUNO AS, priority 2010, dated 2017).
Like-named read-outs stand apart in the source and are kept apart here. Where no end group is shown, it is not given here. [ ]: non-standard residue; d: D form. Nle = CCCC[C@H](N)C(=O)O

Key:
[1] = tested on: HLA-A1; test: REVEAL binding assay; conditions: score as percentage of the signal generated by the positive control peptide
From the text: The REVEAL™ binding assay determined the ability of each candidate peptide to bind to one or more MHC class I alleles and stabilizing the MHC-peptide complex. […] Detection is based on the presence or absence of the native conformation of the MHC-peptide complex. Each peptide is given a score relative to the positive control peptide, which is a known T cell epitope.

[2] = tested on: HLA-A24; test: REVEAL binding assay; conditions: score as percentage of the signal generated by the positive control peptide
[3] = tested on: HLA-A29; test: REVEAL binding assay; conditions: score as percentage of the signal generated by the positive control peptide
[4] = tested on: HLA-B8; test: REVEAL binding assay; conditions: score as percentage of the signal generated by the positive control peptide
[5] = tested on: HLA-B14; test: REVEAL binding assay; conditions: score as percentage of the signal generated by the positive control peptide
[6] = tested on: HLA-B15; test: REVEAL binding assay; conditions: score as percentage of the signal generated by the positive control peptide
[7] = target: HLA-A11 (Homo sapiens, UniProt P04439, A114D/F33Y/S129P); test: REVEAL binding assay; conditions: score as percentage of the signal generated by the positive control peptide
Procedure: (§1) Binding properties to HLA for the ninemers listed in table 6 were tested for the following HLA-classes:
(§2) HLA-A1, HLA-A2, HLA-A3, HLA-A11, HLA-A24, HLA-A29, HLA-B7, HLA-B8, HLA-B14, HLA-B15, HLA-B27, HLA-B35, HLA-B40.
(§3) The peptides were synthesized as a Prospector PEPscreen®: Custom Peptide Library. […] Quality control by MALDI-TOF Mass Spectrometry was carried out on 100% of samples.
(§4) The REVEAL™ binding assay determined the ability of each candidate peptide to bind to one or more MHC class I alleles and stabilizing the MHC-peptide complex. By comparing the binding to that of high and intermediate affinity T cell epitopes, the most likely immunogenic peptides in a protein sequence can be identified. Detection is based on the presence or absence of the native conformation of the MHC-peptide complex. Each peptide is given a score relative to the positive control peptide, which is a known T cell epitope.

[8] = target: HLA-A2 (Homo sapiens, UniProt P04439, D140Y/D185E/D98H/E176V/E277Q/G131W/G231S/I119V/I121R/I166T/I218V/N151K/N90K/P208A/P217A/Q86G/Q94H/R138H/R169H); test: REVEAL binding assay; conditions: score as percentage of the signal generated by the positive control peptide
Procedure: as §1, §2, §3, §4

[9] = target: HLA-A3 (Homo sapiens, UniProt P04439); test: REVEAL binding assay; conditions: score as percentage of the signal generated by the positive control peptide
Sequence of HLA-A3 (P04439 25-299): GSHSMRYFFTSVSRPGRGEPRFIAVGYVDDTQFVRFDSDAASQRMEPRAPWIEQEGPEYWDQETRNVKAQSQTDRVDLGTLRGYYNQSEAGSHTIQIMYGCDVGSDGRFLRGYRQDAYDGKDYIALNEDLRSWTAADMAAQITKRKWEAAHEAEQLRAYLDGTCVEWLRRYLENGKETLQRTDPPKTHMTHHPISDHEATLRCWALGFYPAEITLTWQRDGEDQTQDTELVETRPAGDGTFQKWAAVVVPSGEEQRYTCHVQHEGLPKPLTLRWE
Sequence of HLA-A3 (P61769 21-119, further chain): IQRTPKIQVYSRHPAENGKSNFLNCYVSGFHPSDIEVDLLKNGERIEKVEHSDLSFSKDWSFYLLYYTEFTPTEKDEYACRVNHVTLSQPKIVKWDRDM
Procedure: as §1, §2, §3, §4

[10] = target: HLA-B27 (Homo sapiens, UniProt P01889, D138H/D201E/E176V/E204Q/G107R/H137Y/K202T/N104T/N87E/Q56L/Q94K/R106L/R155S/R180L/S101D/S121N/S48T/Y140D/Y33H/Y91C); test: REVEAL binding assay; conditions: score as percentage of the signal generated by the positive control peptide
Procedure: as §1, §2, §3, §4

[11] = target: HLA-B7 (Homo sapiens, UniProt P01889); test: REVEAL binding assay; conditions: score as percentage of the signal generated by the positive control peptide
Sequence of HLA-B7 (P61769 21-119): as the sequence (P61769 21-119, further chain) above
Sequence of HLA-B7 (P01889 25-299): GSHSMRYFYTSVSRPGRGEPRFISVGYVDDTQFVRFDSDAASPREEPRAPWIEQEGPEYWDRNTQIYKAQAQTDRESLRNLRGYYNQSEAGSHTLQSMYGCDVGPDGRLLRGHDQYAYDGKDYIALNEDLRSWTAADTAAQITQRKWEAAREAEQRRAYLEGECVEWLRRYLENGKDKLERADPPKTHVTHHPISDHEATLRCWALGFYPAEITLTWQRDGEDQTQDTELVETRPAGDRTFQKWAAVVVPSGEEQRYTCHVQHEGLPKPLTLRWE
Procedure: as §1, §2, §3, §4

[12] = tested on: HLA-B35; test: REVEAL binding assay; conditions: score as percentage of the signal generated by the positive control peptide
[13] = tested on: HLA-B40; test: REVEAL binding assay; conditions: score as percentage of the signal generated by the positive control peptide
Procedure: as §1, §2
The peptides were synthesized as a Prospector PEPscreen®: Custom Peptide Library. Peptides 8-15 amino acids in length were synthesized in 0.5-2 mg quantities with high average purity. Quality control by MALDI-TOF Mass Spectrometry was carried out on 100% of samples.
as §4, with “epitope. The score of the test peptide is reported quantitatively as a percentage of the signal generated by the positive control peptide, and the peptide is indicated as having a putative pass or fail result. Assay performance is confirmed by including an intermediate control peptide that is known to bind with weaker affinity to the allele under investigation.” for “epitope.”

[14] = tested on: human PBMCs; assay type: cell-based; conditions: With Cytofix/Cytoperm and trypsination, BC20
[15] = tested on: DC-cells; test: Cell penetration assay: staining for biotinylated peptides, dendritic cells gated as CD11c+; assay type: cell-based, human; conditions: low concentration of peptides (208 uM)
Procedure: A set of peptides were biotinylated on N-terminal, and different combinations of aminoacids, with respect to length and type, were added to the sequence box X^1, X^3 and X^4 in the peptides as illustrated by the diagram below. The peptides were tested on cells grown from one individual blood donor.
96-well U-bottom polystyrene plates (NUNC, cat no: 163320) were used for staining of human PBMCs. Briefly, 8 ul of N- or C-terminally biotinylated peptides according to table 1 or table 2 (i.e. 5 mM, 2.5 mM & 1.25 mM tested for each peptide) were incubated at 37° C. for 2 h with 40 ul of PBMC (12.5×10^6 cells/ml) from blood donors. Cells were then washed 3× with 150 ul of Cellwash (BD, cat no: 349524), followed by resuspension of each cell pellet with 100 ul of Trypsin-EDTA (Sigma, cat no: T4424), then incubated at 37° C. for 5 min. Trypsinated cells were then washed 3× with 150 ul of Cellwash (BD, cat no: 349524), followed by resuspension with BD Cytofix/Cytoperm™ plus (BD, cat no: 554715), then incubated at 4° C. for 20 min according to manufacturer. Cells were then washed 2× with 150 ul PermWash (BD, cat no: 554715). Cells were then stained with Streptavidin-APC (BD, cat no: 554067) & Anti-hCD11c (eBioscience, cat no: 12-0116) according to manufacturer at 4° C. for 30 min aiming to visualize biotinylated peptides & dendritic cells, respectively. Cells were then washed 3× with 150 ul PermWash, followed by resuspension in staining buffer (BD, cat no: 554656) before flow cytometry. Dendritic cells were gated as CD11c+ events outside lymphocyte region (i.e. higher FSC & SSC signals than lymphocytes). 200 000 total cells were acquired on a FACSCanto II flow cytometer with HTS loader, and histograms for both total cells & dendritic cells with respect to peptide-fluorescence (i.e. GeoMean) were prepared.
As shown in table 4 the peptides according to the invention had the ability to allocate through the cell membrane.

| Substance | REVEAL binding score, HLA-type A1 [1] | REVEAL binding score, HLA-type A24 [2] | REVEAL binding score, HLA-type A29 [3] | REVEAL binding score, HLA-type B8 [4] | REVEAL binding score, HLA-type B14 [5] | REVEAL binding score, HLA-type B15 [6] | REVEAL binding score, HLA-type A11 [7] | REVEAL binding score, HLA-type A2 [8] | REVEAL binding score, HLA-type A3 [9] | REVEAL binding score, HLA-type B27 [10] | REVEAL binding score, HLA-type B7 [11] | REVEAL binding score, HLA-type B35 [12] | REVEAL binding score, HLA-type B40 [13] | Geomean value (peptide-fluorescence) ([14]; concentration 104 μM) | Geomean value (peptide-fluorescence) ([14]; concentration 417 μM) | Geomean value (peptide-fluorescence) ([14]; concentration 833 μM) | Results on DC-cells (geomean peptide-fluorescence) ([15]; BC 16) | Results on DC-cells (geomean peptide-fluorescence) ([15]; BC43) | Geomean value (peptide-fluorescence) ([14]; concentration 208 μM) |
| --- | --- | --- | --- | --- | --- | --- | --- | --- | --- | --- | --- | --- | --- | --- | --- | --- | --- | --- | --- |
| ADLMGYIPL | 31.05% | 0.61% | 14.51% | 11.40% | 0.13% | 8.30% | 3.35% | 8.06% | 1.93% | 1.01% | 0.73% | 2.08% | 26.33% |  |  |  |  |  |  |
| AEL[Nle]GYIPL | 16.63% | 0.37% | 20.78% | 14.74% | 0.12% | 10.20% | 3.61% | 7.49% | 3.05% | 0.77% | 1.11% | 1.91% | 72.73% |  |  |  |  |  |  |
| ARALAHGVR | 20.62% | 1.15% | 31.96% | 18.91% | 1.10% | 13.58% | 3.83% | 6.72% | 2.35% | 3.55% | 4.70% | 2.45% | 50.23% |  |  |  |  |  |  |
| GPRLGVRAT | 13.85% | 0.05% | 12.66% | 13.18% | 0.94% | 10.01% |  |  |  |  |  | 1.83% | 19.95% |  |  |  |  |  |  |
| RLGVRATRK | 20.39% | 0.28% | 12.83% | 10.21% | 0.07% | 11.74% |  |  |  |  |  | 2.83% | 23.05% |  |  |  |  |  |  |
| RRGYIPLVGAPLGBGRVARALAHGVRV [SP2] |  |  |  |  |  |  |  |  |  |  |  |  |  | 1211 | 5486 | 3136 | 6677 | 6112 |  |
| RRGYIPLVGAPLGLRRVARALAHGVRV [SP17] |  |  |  |  |  |  |  |  |  |  |  |  |  | 1500 | 29967 | 30248 | 67428 |  | 12244 |
| RRGYIPLVGAPLGRRRVARALAHGVRV [SP6] |  |  |  |  |  |  |  |  |  |  |  |  |  | 1850 | 22195 | 32577 | 10233 | 14468 | 6514 |
| RRGYIPLVGAPLGRRVARALAHGVRV [SP5] |  |  |  |  |  |  |  |  |  |  |  |  |  | 6152 | 46060 | 40534 | 21358 | 29146 | 19065 |
| RRRGYIPLVGAPLGBRVARALAHGVRV [SP8] |  |  |  |  |  |  |  |  |  |  |  |  |  | 2917 | 28606 | 31976 | 15379 | 17836 | 9617 |
| SFSIELLAL |  |  |  |  |  |  |  |  |  |  |  |  | 21.04% |  |  |  |  |  |  |
| WGYIPLVGAPLGRRVARALAHGVRV [SP12] |  |  |  |  |  |  |  |  |  |  |  |  |  | 4316 | 10869 | 11089 | 59274 | 31222 | 8679 |
| WWGYIPLVGAPLGRRVARALAHGVRV [SP13] |  |  |  |  |  |  |  |  |  |  |  |  |  |  | 394 | 568 | 28539 | 9129 | 332 |
